From patent EP0588608A2, “Tricyclic compounds and pharmaceutical compositions containing them” (KYOWA HAKKO KOGYO CO., LTD., priority 1992, dated 1994)

Assays:
ACAT = ACAT inhibiting activity test using HepG2 cells; assay type: cell-based; conditions: 10⁻⁶M test compound, human cultured cell line HepG2, [14C]-oleic acid incorporation into cholesterol ester; 1 µM
Protocol: The ACAT inhibiting activity test using cells of human cultured cell line HepG2 was carried out in accordance with the method of Goldstein et al as described in Methods Enzymology, 98, 241, 1983. 5 x 10⁵ cells/well of human cultured cell line HepG2 were pre-cultured in 5% LPDS (rabbit lipoprotein-deficient serum)-DMEM (Dulbecco Modified Eagle Medium) overnight, and the medium was changed for a fresh 5% LPDS-DMEM (1 mℓ/well). To the medium having the cells were added 3 µℓ, as a whole, of cholesterol and 25-OH-cholesterol as dissolved in ethanol (with the final concentration being 10 µg/mℓ and 5 µg/mℓ, respectively) and 10 µℓ of a test compound (shown in Table 3 below) as dissolved in methanol (with the final concentration being 10⁻⁶M). The cells were cultured for 4 hours. Then, 10 µℓ (0.42 µCi/0.1 µmol/well) of [¹⁴C]-oleic acid-BSA (bovine serum albumin) complex was added to the medium, and the cells were cultured for further 2 hours. After the cultured cells were washed, the lipid of the cells was extracted with 0.5 mℓ/well of hexane/isopropanol (3/2) containing [3H]-cholesterol oleic acid 2000 dpm. The extract was dried to a solid under reduced pressure and the solid was fractionated by silica gel thin layer chromatography using a developing solvent of petroleum ether/diethyl ether/acetic acid (170/30/1) whereupon the radioactivity of the spot of the cholesterol ester was measured with a liquid scintillation counter. Subtracting the radioactivity of the blank test to which cholesterol and 25-OH-cholesterol were not added from the radioactivity as measured above gives the radioactivity of the test compound. The ACAT inhibiting activity of the test compound was calculated from the following equation, based on the radioactivity of the control group as obtained in the same manner as above without using the test compound. ACAT Inhibition (%) = {[Radioactivity of Control Group) - (Radioactivity of Test Compound)]/(Radioactivity of Control Group)} x 100

male ddy strain mice = test: Test for acute toxicity (minimum lethal dose, oral); assay type: in vivo; conditions: orally administered, mortality observed seven days after administration
Protocol: Groups of 3 male ddy strain mice weighing 20±1g were used. The test compounds were orally administered. Seven days after administration, the mortality was observed and the minimum lethal dose (MLD) was determined.

Row | SMILES | Percentage of ACAT Inhibition (ACAT) [%] | Acute Toxicity (MLD) (male ddy strain mice) [mg/kg]
1 | CC(C)c1cccc(C(C)C)c1NC(=O)OCC1c2ccccc2COc2ccccc21 (centres unmarked) [Compound 6, (6,11-Dihydrodibenz[b,e]oxepin-11-ylmethyl)-(2,6-diisopropylphenyl)carbamate] | 40 | 
2 | CC(C)c1cccc(C(C)C)c1NC(=O)NC=C1c2ccccc2COc2ccccc21 [Compound 4] | 93 | 
3 | CC(C)c1cccc(C(C)C)c1NC(=O)NCC1c2ccccc2COc2ccc(Br)cc21 (centres unmarked) [Compound 2, N-(2,6-diisopropylphenyl)-N'-(2-bromo-6,11-dihydrodibenz[b,e]oxepin-11-ylmethyl)urea] | 98 | >300
4 | CC(C)c1cccc(C(C)C)c1NC(=O)NC=C1c2ccccc2CCc2ccccc21 [Compound 5] | 94 | >300
5 | Cc1cc2c(c(C)c1Br)C(CNC(=O)Nc1c(C(C)C)cccc1C(C)C)c1ccccc1CO2 (centres unmarked) [Compound 3, N-(2,6-diisopropylphenyl)-N'-(2-bromo-1,3-dimethyl-6,11-dihydrobenz[b,e]oxepin-11-ylmethyl)urea] | 97 | 
6 | Cc1ccc2c(c1)C(CNC(=O)Nc1c(C(C)C)cccc1C(C)C)c1ccccc1CO2 (centres unmarked) [Compound 1, N-(2,6-diisopropylphenyl)-N'-(2-methyl-6,11-dihydrodibenz[b,e]oxepin-11-ylmethyl)urea] | 99 | 
